Here are results for four compounds from patent US20210261690A9, “Method of Generating Anti-Linaclotide Antibodies and Uses Thereof” (Ironwood Pharmaceuticals, Inc., priority 2018, published 2021).

“And” between values parts separate entries of the source, which are not always exact repeats. Equal values may be shown once. Bridge positions count the residues as written; N and C are the ends. Ends that are not written are not given here. Peptide text beside a SMILES is read from it.

For series [1] the following is noted: after oral administration at therapeutic dose levels; cited from earlier work.
For series [2] the following is noted: Phase 2b studies for CC, four-week treatment period; cited from earlier work.
Series [3] relates to antibody obtained from protocol 2. Briefly: Confirmatory assay (ELISA bridging assay with linaclotide competition). The class given is binding, rabbit. Conditions: 500 ng/mL antibody from protocol 2, 300 ng/mL SEQ ID NO: 8, 312 ng/mL SEQ ID NO: 9. The source says:
The initial bridging assay was developed using a biotinylated form of linaclotide, SEQ ID NO: 8, for antibody capture, and the linaclotide-tracer peptide, SEQ ID NO: 9, for detection on a streptavidin plate. […] A sheep anti-fluorescein antibody conjugated to HRP was used for detection of SEQ ID NO: 9 to enhance the signal over direct detection of the fluorescein moiety by ultraviolet-visible spectroscopy (UV/Vis). In this initial assay, the capture peptide (biotin-linaclotide), detection peptide (fluorescein-linaclotide), and anti-linaclotide antibodies were first incubated overnight in solution to allow complexes to form. These complexes were captured on a streptavidin plate, which was then washed. Bound complexes were detected with an HRP-conjugated anti-fluorescein antibody followed by addition of the HRP substrate and colorimetric detection.
The confirmatory assay was developed as a variation of the ELISA-based bridging assay (Example 6) with competition using fluorescein for detection. The peptide antibody incubation mixture was spiked with native linaclotide, and the concentrations of positive control antibody, capture peptide, and detection peptide were kept constant.
A binding curve was generated using Prism® v.

Series [4] concerns anti-linaclotide antibodies obtained using protocol 2. Briefly: Cross-reactivity competition assay. The class given is binding, rabbit. Conditions: 6.3 μg/mL peptide, 500 ng/mL antibody from protocol 2. The source says: The cross-reactivity assay to test for cross-reactivity to the endogenous hormones, uroguanylin and guanylin, is a competition assay similar to the confirmatory assay (Example 7).
To determine if the positive control antibody produced by protocol 2 could bind either of the endogenous hormones, uroguanylin or guanylin peptides were used in place of linaclotide in a competition assay similar to the confirmatory assay described in Example 7. During development, the IC80 concentration for linaclotide, 6.3 μg/mL, was chosen as a relevant test concentration for cross-reactivity because it is on the higher end of the linear range of the inhibition curve (FIG. 18). This concentration (6.3 μg/mL) is approximately 10,000 times the systemic circulating levels of uroguanylin and guanylin. A non-related peptide, C-type natriuretic peptide (CNP), was added as a negative control in this assay.

The subject of series [5] is positive control antibody produced by protocol 1. Kind of series: Bridging cross-reactivity assay with fluorescein-modified detection peptides. Format: binding, rabbit. The settings on record: 500 ng/mL antibody, 312 ng/mL SEQ ID NO: 8, 312 and 625 ng/mL fluorescein-modified peptides. The source says:
A bridging cross-reactivity assay similar to the screening assay (Example 6) was set up to detect direct binding of the positive control antibody to both linaclotide and uroguanylin or guanylin. For use as detection peptides, uroguanylin and guanylin were synthesized with fluorescein coupled to their N terminus (SEQ ID NO: 10 and SEQ ID NO: 12, respectively; Table 4). This cross-reactivity assay used SEQ ID NO: 8 (Table 4) as the capture peptide, just as in the screening assay, and either SEQ ID NO: 10 (for uroguanylin) or SEQ ID NO: 12 (for guanylin) as the detection peptide. Sheep anti-fluorescein HRP-conjugated antibody was used for detection of positive control antibodies. The antibody must directly bind both the linaclotide-capture peptide and uroguanylin or guanylin to generate a signal in the assay (FIG. 21). A fluorescein-modified PGC1a peptide was purchased for use as a negative control for cross-reactivity.
This cross-reactivity assay was performed using 500 ng/mL of positive control antibody produced by protocol 1, 312 ng/mL of SEQ ID NO: 8, and 2 concentrations (312 and 625 ng/mL) of fluorescein-modified peptides for each set of reactions. […] Positive control antibody is excluded from blank incubations.

The test system of series [6] is positive control antibody. Kind of series: Direct-binding ELISA of linaclotide-tracer peptide. Conditions: anti-fluorescein antibody conjugated to HRP for detection. More on the design: species or system rabbit. An excerpt:
Anti-fluorescein antibody conjugated to HRP was used to detect the linaclotide-tracer peptide, SEQ ID NO: 9. The signal increased with increasing antibody concentration.

The test system of series [7] is rabbit anti-linaclotide antibody. Kind of series: Electrochemiluminescence bridging assay, specificity (cross-reactivity). The class given is binding. Conditions: individual human serum. As for the experimental part:
The electrochemiluminescence assay was used as a validation of a method to detect anti-linaclotide antibodies in human serum using a MSD electrochemiluminescence protocol. Low positive control (LPC), high positive control (HPC), relative light units (RLU), coefficient of variation (CV) and confirmation cut points were determined using MSD procedures. The positive control antibodies used were the antibodies harvested from protocol 2.
The assay is an immunogenicity bridging-based assay developed on MesoScale Discovery Electrochemiluminescence (ECL) technology. It is performed by first mixing a biotinylated-linaclotide analog, a sulfotag-labeled linaclotide analog, and the clinical sample together in a multi-well plate. The presence of anti-linaclotide antibodies in the clinical sample forms an immune complex with a biotin-labeled linaclotide analog and a sulfotag-labeled linaclotide analog. The immune complex is subsequently captured on a streptavidin coated MesoScale Discovery multi-well plate followed by a wash step. The captured immune complex is then detected by electrochemiluminescence generated by the sulfotag-labeled linaclotide portion of the immune complex. The signal generated by the sample is then compared to a pre-determined screening cut point to determine if the sample is positive for the presence of anti-linaclotide antibodies. Samples that are determined to be positive are subjected to a second immunogenicity confirmation assay which is performed by mixing a biotinylated-linaclotide analog, a sulfotag-labeled linaclotide analog, the clinical sample, and unlabeled linaclotide together in a multi-well plate. The immune complex is subsequently captured on a streptavidin-coated MesoScale Discovery multi-well plate followed by a wash step. The captured immune complex is then detected by electrochemiluminescence generated by the sulfotag-labeled linaclotide portion of the immune complex. The signal generated by the sample is then compared to a pre-determined confirmation assay cut point to determine if the sample is positive for the presence of anti-linaclotide antibodies. Samples that are confirmed positive by this assay are subsequently tested at different dilutions to determine the titer of the anti-linaclotide antibody.
Specificity (cross-reactivity) of the assay was assessed by spiking ten drug-naive individual human serum samples containing rabbit anti-linaclotide antibody at the HPC (500 ng/mL) and the screening LPC (44 ng/mL) levels with 10 μg/mL Uroguanylin or Guanylin. At the same time, ten replicates of the antibody-spiked samples (without Uroguanylin or Guanylin) at each level were included to establish the % Inhibition. The following formula was used to calculate the % Inhibition for each individual:
% Inhibition=[(1−(Drug with Antibody/Antibody alone)]*100

Series [8] relates to antibody produced by protocol 1. Kind of series: Direct-binding ELISA for cross-reactivity with immobilized biotinylated peptides. Also on record: species or system rabbit. As to the method: To further characterize the interactions between the positive control antibody and the cross-reacting peptides, a direct-binding ELISA experiment was conducted in which varying concentrations of biotinylated peptides (linaclotide, uroguanylin, and negative control parathyroid hormone [PTH]) were immobilized on the plate for antibody capture. The assay was performed using either sera from protocol 1 or anti-uroguanylin serum (Abcam ab52806) in ELISA buffer; no adequate control antibody to guanylin is available. HRP-anti-rabbit secondary antibody was used for the detection of anti-linaclotide antibodies, and HRP-anti-mouse secondary antibody was used for the detection of anti-uroguanylin antibodies from the antiserum. […] The signal for uroguanylin binding was approximately 15% of the signal obtained for linaclotide under the same conditions.
(ELISA stands for enzyme-linked immunosorbent assay.)

Regarding `C[C@@H]1NC(=O)[C@@H]2CCCN2C(=O)[C@H](CC(N)=O)NC(=O)[C@@H]2CSSC[C@H](N)C(=O)N[C@H]3CSSC[C@H](NC1=O)C(=O)N[C@@H]([C@@H](C)O)C(=O)NCC(=O)N[C@H](C(=O)N[C@@H](Cc1ccc(O)cc1)C(=O)O)CSSC[C@H](NC(=O)[C@H](Cc1ccc(O)cc1)NC(=O)[C@H](CCC(=O)O)NC3=O)C(=O)N2` [Linaclotide, C1C2EYC3C1NPAC2TGC3Y] (H-CCEYCCNPACTGCY-OH; disulfide 1-6, 2-10, 5-13), in series [1], the levels seen systemically is reported as “no detectable levels”. In series [2], the “effect on constipation, abdominal discomfort and bloating” value is “reduced constipation, abdominal discomfort, and bloating”. Further, in series [3], the “50% inhibitory concentration (IC50)” value came out at 1.4 µg/mL and the “80% inhibitory concentration (IC80)” value turned out to be 6.3 µg/mL. For the same compound, the inhibition of binding entry in series [4] was “approximately 60%”. Also, in series [5], the “signal in the direct-binding assay for cross-reactivity” value is reported as “Only linaclotide was able to generate a positive signal”.

For the compound “Fluorescein-C1 C2 EYC3 C1 NPAC2 TGC3 Y [SEQ ID NO: 9]”, the “binding to the positive control antibody” value in series [6] was “confirmed”.

Take “NNDC1 ELC2 VAVAC1 TGC2 L (NNDCELCVAVACTGCL; disulfide 4-12, 7-15; not fully specified (N-terminus); printed as NNDC1 ELC2 VAVAC1 TGC2 L) [Uroguanylin, endogenous hormone]”: the “Percent Inhibition” value is 10.7% and 18.6% and 9.5% and −11.3% and 10.1% and −11.7% and −1.3% and −0.5% and 0.6% and 1.9% in series [7] (10 μg/mL Uroguanylin, antibody at the HPC (500 ng/mL)); −6.6% and 18.4% and 15.7% and 4.8% and −3.8% and −1.5% and 3.2% and 5.1% and −0.5% and −4.1% in series [7] (10 μg/mL Uroguanylin, antibody at the Screening LPC (44.0 ng/mL)). Besides, the “Antibody and 10 μg/mL Uroguanylin (signal)” value in series [7] (antibody at the HPC (500 ng/mL)) is 147 and 151 and 145 and 164 and 162 and 185 and 180 (2×) and 169 and 157; in series [7] (antibody at the Screening LPC (44.0 ng/mL)) it was 59 (2×) and 39 and 44 and 52 (4×) and 51 and 53. The “recognition by antibodies produced by protocol 2 (inhibition versus negative control CNP)” value in series [4] is on record as “not recognized by antibodies produced by protocol 2”. For the same compound, the “signal for binding relative to the signal obtained for linaclotide” value in series [8] (60 ng/mL antibody of protocol 1) is “approximately 15%”. Moreover, the “binding of antibody produced by protocol 1” value in series [8] (60 ng/mL antibody of protocol 1, varying concentrations of biotinylated peptide, FIG. 20) is listed as “binds to uroguanylin in a concentration-dependent manner”.

As for “PGTC1 EIC2 AYAAC1 TGC2 (PGTCEICAYAACTGC; disulfide 4-12, 7-15; not fully specified (N-terminus); printed as PGTC1 EIC2 AYAAC1 TGC2) [Guanylin, endogenous hormone]”, the “Antibody and 10 μg/mL Uroguanylin (signal)” value is 225 and 199 and 179 and 177 and 174 and 181 and 155 and 135 and 130 and 239 in series [7] (Table 7 (Guanylin), antibody at the HPC (500 ng/mL)); 71 and 57 (2×) and 55 (2×) and 54 and 53 (2×) and 63 and 51 in series [7] (Table 7 (Guanylin), antibody at the Screening LPC (44.0 ng/mL)). Moreover, the “Percent Inhibition” value in series [7] (Table 7 (Guanylin, 10 μg/mL), antibody at the HPC (500 ng/mL)) was 0.0% and 3.2% and 7.6% and −3.4% and 2.2% and −7.8% and −3.9% and −1.9% and −7.1% and −4.5%; in series [7] (Table 7 (Guanylin, 10 μg/mL), antibody at the Screening LPC (44.0 ng/mL)), −7.1% and 8.2% and 3.4% and 12.5% and 11.0% and 7.4% and 6.4% and 3.6% and 0.1% and 7.0%. Moreover, the “recognition by antibodies produced by protocol 2 (inhibition versus negative control CNP)” value in series [4] is “not recognized by antibodies produced by protocol 2”.
